Among the test systems are SF-268 CNS; HCC-2998 colon; MDA-MB-231 breast; SNB-19 CNS; UO-31 renal; CAKI-1 renal; BT-549 breast; MDA-MB-435; DU-145 prostate; K-562 leukemia.
What all share (assay): growth of human tumour cells (NCI), 48 h

Values joined by “and” are separate entries in the source; they are usually repeats but may differ in a detail not shown here. Equal values may be shown once.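 1) Cells in 96-well plates. 2) Compound, 48 h, 5 concentrations. 3) Linear interpolation between surrounding doses. 4) Unreached endpoint = highest concentration. Abbreviation: GI50, concentration required for 50% inhibition of growth. TGI: concentration producing complete growth inhibition.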

As for `OCC(O)C(O)C(O)C(O)c1nnc2c(-c3ccccc3)nc3ccccc3n12` (stereo not given), the GI50 in the assay with SF-268 CNS was greater than 100 µM; in the assay with HCC-2998 colon, 62.4 µM; in the assay with MDA-MB-231 breast it was 32.8 µM; with SNB-19 CNS, greater than 100 µM; in the assay with UO-31 renal, greater than 100 µM; in the assay with CAKI-1 renal, greater than 100 µM. Besides, the GI50 in the assay on BT-549 breast was 56.4 µM; in the assay on MDA-MB-435, greater than 100 µM; in the assay with DU-145 prostate, greater than 100 µM; with K-562 leukemia, 78.3 µM. In addition, the TGI in the assay on SF-268 CNS, with HCC-2998 colon, in the assay on MDA-MB-231 breast, in the assay on SNB-19 CNS, in the assay on UO-31 renal and in the assay on CAKI-1 renal was greater than 100 µM each time. Moreover, the TGI in the assay with BT-549 breast, in the assay with MDA-MB-435, in the assay on DU-145 prostate and with K-562 leukemia was greater than 100 µM in each case.
Regarding `CC1(C)N=C(N)N=C(N)N1c1cccc(CCc2ccccc2)c1`, the GI50 in the assay with SF-268 CNS is 0.34 µM; in the assay with HCC-2998 colon, 1.69 µM; with MDA-MB-231 breast it was 4.27 µM; in the assay with SNB-19 CNS it was 0.696 µM; with UO-31 renal, greater than 100 µM; in the assay with CAKI-1 renal, 40.2 µM. Moreover, the GI50 with BT-549 breast is 0.577 µM; with MDA-MB-435, 0.154 µM; in the assay with DU-145 prostate, 0.552 µM; in the assay on K-562 leukemia it was 0.299 µM. In addition, the TGI in the assay with SF-268 CNS was 57.5 µM; with HCC-2998 colon, greater than 38.7 µM; in the assay on MDA-MB-231 breast, greater than 100 µM; in the assay on SNB-19 CNS, greater than 100 µM; in the assay on UO-31 renal it was greater than 100 µM; in the assay with CAKI-1 renal, greater than 100 µM. Moreover, the TGI is greater than 46.7 µM with BT-549 breast, 35.4 µM in the assay with MDA-MB-435, greater than 100 µM with DU-145 prostate and greater than 100 µM in the assay with K-562 leukemia.
On to `CC(=O)OCC1OC(n2c3c(cc(C#N)c2=S)CCCC3)C(OC(C)=O)C(OC(C)=O)C1OC(C)=O` (stereo not given), for which the GI50 in the assay with SF-268 CNS was > 100 µM and 22.9 µM; in the assay on HCC-2998 colon, 41.3 µM and > 100 µM; with SNB-19 CNS, > 100 µM and 21.5 µM; in the assay with CAKI-1 renal it was > 100 µM and 42.1 µM; in the assay on K-562 leukemia, 24.1 µM and > 100 µM. The TGI with SF-268 CNS is greater than 100 µM; in the assay on HCC-2998 colon it was greater than 100 µM; in the assay on MDA-MB-231 breast, greater than 100 µM; in the assay on SNB-19 CNS it was > 100 µM and 54.4 µM; in the assay on UO-31 renal it was greater than 100 µM; in the assay with CAKI-1 renal, greater than 100 µM. The TGI is greater than 100 µM in the assay on BT-549 breast; greater than 100 µM in the assay with MDA-MB-435; greater than 100 µM in the assay with DU-145 prostate; 68 µM and > 100 µM in the assay on K-562 leukemia.
On to `COc1cc2c3cc1Oc1c(OC)c(OC)cc4c1C(Cc1ccc(O)c(c1)Oc1ccc(cc1)CC3N(C)CC2)N(C)CC4` (stereo not given), for which the GI50 in the assay with SF-268 CNS was 15.2 µM; in the assay with HCC-2998 colon it was 10.9 µM; with MDA-MB-231 breast it was 5.21 µM; in the assay with SNB-19 CNS, 31.5 µM; with UO-31 renal, 13.9 µM; in the assay with CAKI-1 renal, 14 µM. Further, the GI50 with BT-549 breast is 14.7 µM; with MDA-MB-435, 6.7 µM; with DU-145 prostate, 18.2 µM; with K-562 leukemia, 2.04 µM. The TGI was 64.2 µM and 51.8 µM in the assay with SF-268 CNS; 37.3 µM and 32.1 µM in the assay on HCC-2998 colon; > 100 µM and 21.9 µM in the assay with MDA-MB-231 breast; 65.8 µM and > 100 µM in the assay with SNB-19 CNS; 35.7 µM and 31.9 µM in the assay on UO-31 renal; 48.5 µM and 40.6 µM with CAKI-1 renal. Also, the TGI is 60.1 µM and 35.6 µM with BT-549 breast; 19.8 µM in the assay on MDA-MB-435; > 100 µM and 84.4 µM with DU-145 prostate; > 100 µM and 12.9 µM in the assay with K-562 leukemia.
With `NC1=NCN(C2OC(CO)C(O)C2O)C(=O)N1` (stereo not given), the TGI with SF-268 CNS was 2460 µM; with HCC-2998 colon it was 1190 µM; in the assay on MDA-MB-231 breast, 568 µM; with SNB-19 CNS it was 2220 µM; in the assay with UO-31 renal, 872 µM; in the assay with CAKI-1 renal, 339 µM. Besides, the TGI came to 765 µM in the assay with BT-549 breast, 154 µM in the assay on MDA-MB-435, 1330 µM in the assay with DU-145 prostate and 788 µM in the assay on K-562 leukemia.
With `CC(=O)Oc1cc2cnc3c4cc(OC(C)=O)c(OC(C)=O)cc4ccc3c2cc1OC(C)=O`, the GI50 in the assay with SF-268 CNS was 1.22 µM; in the assay on HCC-2998 colon, 3.74 µM; in the assay on MDA-MB-231 breast, 1.02 µM; with SNB-19 CNS, 0.594 µM; in the assay on UO-31 renal, 0.472 µM; with CAKI-1 renal it was 0.611 µM. The GI50 in the assay with BT-549 breast was 1.35 µM; in the assay with MDA-MB-435, 0.506 µM; with DU-145 prostate it was 2.61 µM; with K-562 leukemia it was 2.08 µM. The TGI in the assay with SF-268 CNS was 17.6 µM; with HCC-2998 colon, greater than 100 µM; in the assay on MDA-MB-231 breast, greater than 100 µM; with SNB-19 CNS, 65.9 µM; in the assay with UO-31 renal it was greater than 100 µM; in the assay with CAKI-1 renal, greater than 100 µM. Further, the TGI is 8.4 µM with BT-549 breast, greater than 100 µM in the assay with MDA-MB-435, greater than 100 µM in the assay on DU-145 prostate and greater than 100 µM in the assay on K-562 leukemia.
Consider `O=CN1N=C(c2cccc(Nc3ccnc4cc(Cl)ccc34)c2)CC1c1ccc(Cl)cc1` (stereo not given), for which the GI50 with SF-268 CNS is 4.37 µM; with HCC-2998 colon it was 3.36 µM; in the assay on MDA-MB-231 breast it was 2.12 µM; in the assay on SNB-19 CNS, 3.48 µM; in the assay on UO-31 renal, 0.878 µM; with CAKI-1 renal, 0.954 µM. Moreover, the GI50 with BT-549 breast was 1.36 µM; in the assay on MDA-MB-435, 0.293 µM; with DU-145 prostate it was 4.17 µM; in the assay with K-562 leukemia it was 0.413 µM. In addition, the TGI in the assay with SF-268 CNS, in the assay on HCC-2998 colon, in the assay with MDA-MB-231 breast, in the assay with SNB-19 CNS, with UO-31 renal and with CAKI-1 renal was greater than 100 µM throughout. The TGI in the assay on BT-549 breast is 16.2 µM; in the assay with MDA-MB-435 it was 24.9 µM; with DU-145 prostate, greater than 100 µM; in the assay on K-562 leukemia, greater than 100 µM.
Take `Cc1nc2ccccc2c(=O)n1/N=C(\N=Nc1cc(Cl)ccc1Cl)c1ccccc1`: the TGI was greater than 100 µM with SF-268 CNS; greater than 100 µM in the assay with HCC-2998 colon; greater than 100 µM with MDA-MB-231 breast; greater than 31.6 µM in the assay with SNB-19 CNS; greater than 31.6 µM with UO-31 renal; greater than 100 µM in the assay on CAKI-1 renal. For the same molecule, the TGI was greater than 100 µM in the assay with BT-549 breast, 44.1 µM in the assay on MDA-MB-435, greater than 100 µM in the assay on DU-145 prostate and greater than 100 µM in the assay on K-562 leukemia.
